“Also recorded” adds a separate entry of the source.
Key:
Demodex mites [1] = experiment: Preliminary in-vitro screening of monomer compounds for effect on survival time of Demodex mites; set-up: species or system D. folliculorum; settings: 20° C., humidity 96%; for Survival time: in vitro, 35 µL monomer compound solution in 10% DMSO, mean ± SD; for in-vitro survival time of Demodex mites compared with the negative control group receiving 10% DMSO solution: in words
Protocol: The powders of the monomer compounds shown in Table 2 were separately dissolved in dimethyl sulfoxide (DMSO), and then diluted with sterilized double-distilled water to make the final concentration of DMSO 10%, which could not shorten the survival time of Demodex mites as per a controlled study. The negative control group received DMSO mixed with sterilized water at a final concentration of 10%.
As in Example 1, 35 µL of each solution was added to a glass slide, and the survival of the mites was observed under an optical microscope every 2 hours. During the experiment, the Demodex mites were observed by two skilled operators separately for the activities (bodies, limbs and the like) through the microscope to determine whether they were dead or not. If the two operators gave different results, the survival status was determined independently by a third skilled operator. The in-vitro culture was conducted in a climatic chamber at a temperature of 20° C. and a humidity of 96%. During the observation, the glass slides were transported in a wet box to ensure the high humidity.
In this experiment, statistical analysis was conducted using SPSS22.0 statistical software, normality test was conducted using Shapiro-Wilk test, and homogeneity of variance test was conducted using Bartlett’s test.
Effects of monomer compounds of traditional Chinese medicine on survival time of D. folliculorum The in-vitro culture of the Demodex mites was conducted in an environment at a humidity of 96% and a temperature of 20° C. The survival of the Demodex mites was observed dynamically and the survival time was recorded.

Demodex mites [2] = experiment: In-vitro culture of Demodex mites with traditional Chinese medicine decoctions: survival time; set-up: species or system D. folliculorum; settings: 20° C., humidity 96%
Protocol: The detection of Demodex mites was performed according to the conventional method of eyelash microscopy (12,20). 3 eyelashes were collected from each eyelid, with a total of 12 eyelashes. The collected eyelashes were immediately placed on glass slides with three eyelashes on each glass slide, and the glass slides were examined under a common optical microscope for observation. Demodex mites in all periods were counted and classified according to morphology (specific standard: D. brevis with a head-to-body ratio of 1:1, and D. folliculorum with a head-to-body ratio of 1:3 to 1:4). […]
On the basis of the above detection of Demodex mites, 35 µL of the solutions was separately added to the slides, and the survival of the mites was observed every 2 hours. […] If the two operators gave different results, the survival status was determined independently by a third skilled operator. […]
60 g of dried ready-to-use forms was weighed using an electronic balance, and soaked in water with an amount of 10 times (600 mL) in a marmite overnight. […]
The in-vitro culture of the Demodex mites was conducted in an environment at a humidity of 96% and a temperature of 20° C. The survival of the Demodex mites was observed dynamically and the survival time was recorded.

Structure (SMILES)	Survival time (Demodex mites [1]) [h]	Survival time (Demodex mites [2]; in vitro, 35 µL solution on slide, decoction 60 g in 100 mL, TTO and T4O 10% in sterilized water, mean ± SD) [h]	in-vitro survival time of Demodex mites compared with the negative control (sterilized water) (Demodex mites [2]; in words)	in-vitro survival time of Demodex mites compared with the negative control group receiving 10% DMSO solution (Demodex mites [1])
O=C(O)/C=C/c1ccc(O)c(O)c1 [Caffeic acid]	66.45 ± 24.24			
CC1=CCC(O)(C(C)C)CC1 (stereo not shown) [T4O, terpinen-4-ol]		40.50 ± 13.12	did not show significant differences	
C=C1CC[C@]2(C)CC[C@]3(C)[C@H](CC[C@@H]4[C@@]5(C)CC[C@H](OC(C)=O)C(C)(C)[C@@H]5CC[C@]43C)[C@H]2[C@@H]1C [Taraxasterol acetate]	37.91 ± 20.96			significantly shorter; also recorded: can significantly shorten the survival time of the mites
CC1(C)CC[C@]2(C)CC=C3[C@]4(C)CC[C@H]5C(C)(C)[C@@H](O)CC[C@]5(C)[C@H]4CC[C@@]3(C)[C@@H]2C1 [Taraxerol]				significantly shorter; also recorded: can significantly shorten the survival time of the mites
COc1ccc(-c2cc(=O)c3c(O)cc(O)cc3o2)cc1O [Diosmetin]				significantly shorter; also recorded: can significantly shorten the survival time of the mites

Reference: US20230165921A1, “USE OF DANDELION AND MONOMER COMPOUNDS THEREOF FOR KILLING MITES” (SMILEBIOTEK ZHUHAI LIMITED, priority 2020, published 2023)
